Results as given in patent US4446047A, “Pleochroic anthraquinone dyes” (Imperial Chemical Industries PLC, priority 1981, dated 1984).

Key:
[1] = prior-art symmetrical dyes; cited from earlier work
[2] = prior-art symmetrical dyes; cited from earlier work; remark: listed apart in the source
[3] = prior-art symmetrical dyes; cited from earlier work; remark: listed apart in the source
[4] = Molar extinction coefficient of the dye in liquid crystal material; type: physicochemical
Source text: Solubility is, however, only one of the factors affecting the achievement of good contrast in a liquid crystal display, another factor is the extinction coefficient of the dye in the liquid crystal material. One useful indication of the ability of a dye to give good contrast is the product of the molar extinction coefficient and the solubility (in moles/liter).

[5] = Absorption maximum in liquid crystal medium E43; type: physicochemical; conditions: E43, 20° C., Table 4
Source text: Detection was by means of a u.v. source (254 nm) and samples, corresponding to all the peaks in the chromatogram, were collected.

[6] = Solubility in other liquid crystal media (hosts) / liquid crystal materials; type: physicochemical
Procedure: (§1) The properties of some of the dyes described in the Examples were also measured in other liquid crystal media (hosts) at 20° C., unless otherwise stated, and the results are set out in Table 5.
(§2) The liquid crystal materials referred to in Table 5 as Hosts 1 to 12 have the following compositions:
(§3) Host 1 is the liquid crystal material E7, available from BDH Chemicals Ltd, which includes the compounds:
(§4) Host 2 is the liquid crystal material ZLI 1132, available from E Merck & Co, which includes the following compounds:
(§5) Host 3 is the liquid crystal material ZLI 1695, available from E Merck & Co, Darmstadt, West Germany. This has a clearing point (nematic to isotropic transition temperature) of 72° C.
(§6) Host 4 is a mixture of alkyl-cyanophenyl-dioxanes containing n-propyl, n-pentyl and n-heptyl chains.
(§7) Host 5 is the liquid crystal material ZLI 1565, available from E Merck & Co. This has a clearing point of 85° C.
(§8) Host 6 is the liquid crystal material ZLI 1624, available from E Merck & Co. This has a clearing point of 87° C.
(§9) Host 8 is the liquid crystal material RO-TN 430 available from Hoffmann La Roche Co. This has a clearing point of 69° C.
(§10) Host 9 is a mixed bicyclo-octane liquid crystal material containing the following compounds:
(§11) Host 10 is a mixture of liquid crystal materials based mainly on cyanobiphenyls and available from BDH Chemicals Ltd under the name E61.
(§12) Host 11 is a mixture of liquid crystal materials based mainly on cyanobiphenyls and available from BDH Chemicals Ltd under the name E49.
(§13) Host 12 is a mixture of fluorobicyclo(2,2,2)octane esters having negative anisotropy and containing a mixture of two compounds of the following formula: […]

[7] = Order parameter in liquid crystal medium E43; type: physicochemical; conditions: E43, 20° C., Table 4
Procedure: (§14) In order to provide maximum contrast between the two states it is important that the guest molecules adopt as closely as possible the time averaged orientation of the host, however this is achieved only to a limited degree because of random thermal fluctuations. The degree to which the orientation varies from the ideal is measured by a quantity known as the order parameter S which is given by the following equation: […]
where cos^2 θ is a time averaged term and θ is the instantaneous angular orientation of the molecules with respect to the time averaged orientation of the host molecules.

[8] = Order parameter in other liquid crystal media (hosts) / liquid crystal materials; type: physicochemical; conditions: 20° C.
Procedure: as §14
where cos^2 θ is a time averaged term and θ is the instantaneous angular orientation of the molecules with respect to the time averaged orientation of the host molecules. The determination of the value of the order parameter S is well understood in the art, see for example the paper, "A new absorptive mode reflective liquid crystal display device", by D. L. White and G. N. Taylor in the Journal of Applied Physics, 1974, 45, pages […] to 4723.
as §1, §2, §3, §4, §5, §6, §7, §8, §9, §10, §11, §12, §13

molar extinction coefficient [4]	λmax [5]	Solubility ([6]; Host 2 (ZLI 1132), 20° C.)	Solubility ([6]; Host 3 (ZLI 1695), 20° C.)	Solubility ([6]; Host 10 (E61), -2° C.)	Solubility ([6]; Host 11 (E49), 20° C.)	Solubility ([6]; Host 11 (E49), -2° C.)	Solubility ([6]; Host 12 (fluorobicyclo(2,2,2)octane esters), 20° C.)	Order Parameter [7]	Order Parameter ([8]; Host 1 (E7))	Order Parameter ([8]; Host 2 (ZLI 1132))	Order Parameter ([8]; Host 3 (ZLI 1695))	Order Parameter ([8]; Host 4 (alkyl-cyanophenyl-dioxanes mixture))	Order Parameter ([8]; Host 9 (mixed bicyclo-octane))	Order Parameter ([8]; Host 10 (E61))	Order Parameter ([8]; Host 11 (E49))	Order Parameter ([8]; Host 12 (fluorobicyclo(2,2,2)octane esters))	SMILES	solubility in the liquid crystal materials (in words) [1]	order parameters (in words) [2]	stability (in words) [3]
																	O=C1c2cccc(Sc3ccccc3)c2C(=O)c2cccc(Sc3ccccc3)c21 [1,5-bis(phenylthio)anthraquinone]	insufficient for practical purposes	high	adequate
11,000 cm^2.moles^-1	464 nm	4.0%	2.5%	4.0%	> 5.0%	4.4%	2.0%	0.79	0.73	0.79	0.81	0.74	0.81	0.78	0.78	0.77	CC(C)(C)c1ccc(Sc2cccc3c2C(=O)c2cccc(Sc4ccccc4)c2C3=O)cc1 [Example 11, 1-phenylthio-5-(4-t-butylphenylthio)anthraquinone]			
